Test results as given in patent US11000033B2, “Ketone or oxime compound, and herbicide” (NISSAN CHEMICAL CORPORATION, priority 2014, dated 2021).

Tests used:
Type in all cases: in vivo
Stellaria media = assay: Test Example 4: herbicidal effect by soil treatment (symbol P); details: 320 g/ha
Method in brief: (§1)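 Seeds were sown in sterilized diluvial soil, covered with about 1.5 cm of soil, and the soil surface was sprayed with a water-diluted emulsion of the compound at a predetermined rate. Plants grew in a greenhouse at 25° C. to 30° C.; effects were scored visually 3 weeks after application.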

Scirpus juncoides = assay: Test Example 1: herbicidal activity, application before weed generation in submerged conditions (symbol B); details: application herbicide amount 320 g/ha
Method in brief: (§2)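 In a flooded pot test with alluvial soil, the emulsion-formulated compound was diluted with water to a predetermined amount and applied to the floodwater immediately on the sowing day. Pots were held in a greenhouse at 25–30 °C for 3 weeks before each weed was rated.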

Monochoria vaginalis = assay: Test Example 1: herbicidal activity, application before weed generation in submerged conditions (symbol C); details: application herbicide amount 320 g/ha
Method in brief: as §2

rice = assay: Test Example 4: effect on crop by soil treatment (symbol b); details: 320 g/ha
Method in brief: (§3)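 Diluvial soil (sterilized) in boxes; seeds placed spot-wise alongside weed species; ~1.5 cm covering soil. Greenhouse, 25–30° C.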

rapeseed [1] = assay: Test Example 5: effect on crop by foliage application, plastic box (symbol g); details: 320 g/ha, 3 weeks after application
Method in brief: (§4)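 Greenhouse test at 25° C. to 30° C. Seeds of crops and weeds were spot-sown in boxes of sterilized diluvial soil under roughly 1.5 cm soil cover, then grown for foliage treatment.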

[2] = tested on: Echinochloa crus-galli var. crus-galli; assay: Test Example 5: herbicidal effect by foliage application, plastic box (symbol H); details: 320 g/ha, 3 weeks after application
Method in brief: (§5)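 Greenhouse foliar test: seedlings at 14 days, grown 25° C. to 30° C. in sterilized diluvial soil; compound applied as an aqueous dilution of an emulsion; response read 3 weeks after spraying.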

beet = assay: Test Example 5: effect on crop by foliage application, plastic box (symbol f); details: 320 g/ha, 3 weeks after application
Method in brief: as §4

Amaranthus retroflexus [3] = assay: Test Example 5: herbicidal effect by foliage application, plastic box (symbol N); details: 320 g/ha, 3 weeks after application
Method in brief: as §5

Setaria viridis = assay: Test Example 5: herbicidal effect by foliage application, plastic box (symbol G); details: 320 g/ha, 3 weeks after application
Method in brief: as §5

[4] = tested on: directly sowed rice plant; assay: Test Example 3: effect on crop by foliage application, Wagner pot (symbol b); details: application herbicide amount 320 g/ha
Method in brief: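 Alluvial soil in a 1/10000-are Wagner pot was flooded to a water depth of 0.1–0.5 cm. Echinochloa crus-galli var. crus-galli, Leptochloa chinensis, Cyperus difformis and rice were sown into it and grown in a greenhouse at 25–30 °C.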

[5] = tested on: Echinochloa crus-galli var. crus-galli; assay: Test Example 4: herbicidal effect by soil treatment (symbol H); details: 320 g/ha
Method in brief: as §1

Cyperus difformis = assay: Test Example 3: herbicidal effect by foliage application, Wagner pot (symbol E); details: application herbicide amount 320 g/ha
Method in brief: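 Foliar spray of a water-diluted emulsion at a predetermined herbicide amount, applied to 14-day-old plants. Seedlings were raised in flooded alluvial soil (0.1–0.5 cm water) at 25–30 °C in a greenhouse. Injury was rated after 3 weeks against fixed criteria.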

Amaranthus retroflexus [6] = assay: Test Example 4: herbicidal effect by soil treatment (symbol N); details: 320 g/ha
Method in brief: as §1

[7] = tested on: Echinochloa oryzacola Vasing.; assay: Test Example 1: herbicidal activity, application before weed generation in submerged conditions (symbol A); details: application herbicide amount 320 g/ha
Method in brief: as §2

corn = assay: Test Example 4: effect on crop by soil treatment (symbol c); details: 320 g/ha
Method in brief: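 Soil-treatment setup: crop and weed seeds were spot-sown into sterilized diluvial soil, then buried beneath approximately 1.5 cm of it, and the boxes were housed in a 25–30° C. greenhouse.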

rapeseed [8] = assay: Test Example 4: effect on crop by soil treatment (symbol g); details: 320 g/ha
Method in brief: as §3

Row | Structure (SMILES) | P: Stellaria media, herbicidal effect grade (Stellaria media) | Herbicidal effect grade, B: Scirpus juncoides (Scirpus juncoides) | Herbicidal effect grade, C: Monochoria vaginalis (Monochoria vaginalis) | b: directly sowed rice plant, effect grade on crop (rice) | g: rapeseed, effect on crop (criteria 0-5) (rapeseed [1]) | H: Echinochloa crus-galli var. crus-galli, herbicidal effect (criteria 0-5) [2] | f: beet, effect on crop (criteria 0-5) (beet) | N: Amaranthus retroflexus, herbicidal effect (criteria 0-5) (Amaranthus retroflexus [3]) | G: Setaria viridis, herbicidal effect (criteria 0-5) (Setaria viridis) | effect on crop b (directly sowed rice plant), grade 0-5 [4] | H: Echinochloa crus-galli var. crus-galli, herbicidal effect grade [5] | herbicidal effect on E, grade 0-5 (Cyperus difformis) | N: Amaranthus retroflexus, herbicidal effect grade (Amaranthus retroflexus [6]) | Herbicidal effect grade, A: Echinochloa oryzacola Vasing. [7] | c: corn, effect grade on crop (corn) | g: rapeseed, effect grade on crop (rapeseed [8])
1 | C=C(C)CN(CC)C(=O)OC1=C(c2c(C)cc(C)cc2C)C(=O)C(CC(C)=NOC)C1 (centres unmarked) [1-130] | 0 (Herbicidal ratio of 5% or lower (almost no effect)) | 0 (Herbicidal ratio of 5% or lower (almost no effect)) | 0 (Herbicidal ratio of 5% or lower (almost no effect)) | 0 (Herbicidal ratio of 5% or lower (almost no effect)) | 5 (Herbicidal ratio of 90% or more (almost completely withered)) | 5 (Herbicidal ratio of 90% or more (almost completely withered)) | 0 (Herbicidal ratio of 5% or lower (almost no effect)) | 0 (Herbicidal ratio of 5% or lower (almost no effect)) | 5 (Herbicidal ratio of 90% or more (almost completely withered)) | 5 (Herbicidal ratio of 90% or more (almost completely withered)) | 0 (Herbicidal ratio of 5% or lower (almost no effect)) | 4 (Herbicidal ratio of 70% or higher and lower than 90%) | 0 (Herbicidal ratio of 5% or lower (almost no effect)) | 3 (Herbicidal ratio of 40% or higher and lower than 70%) | 0 (Herbicidal ratio of 5% or lower (almost no effect)) | 0 (Herbicidal ratio of 5% or lower (almost no effect))
2 | Cc1cc(C)c(C2=C(O)CC(CC(=NOCC(F)(F)F)C3CC3)C2=O)c(C)c1 (centres unmarked) [1-131] | 0 (Herbicidal ratio of 5% or lower (almost no effect)) | 4 (Herbicidal ratio of 70% or higher and lower than 90%) | 1 (Herbicidal ratio of 5% or higher and lower than 20%) | 5 (Herbicidal ratio of 90% or more (almost completely withered)) | 5 (Herbicidal ratio of 90% or more (almost completely withered)) | 4 (Herbicidal ratio of 70% or higher and lower than 90%) | 0 (Herbicidal ratio of 5% or lower (almost no effect)) | 0 (Herbicidal ratio of 5% or lower (almost no effect)) | 5 (Herbicidal ratio of 90% or more (almost completely withered)) | 5 (Herbicidal ratio of 90% or more (almost completely withered)) | 5 (Herbicidal ratio of 90% or more (almost completely withered)) | 5 (Herbicidal ratio of 90% or more (almost completely withered)) | 0 (Herbicidal ratio of 5% or lower (almost no effect)) | 5 (Herbicidal ratio of 90% or more (almost completely withered)) | 0 (Herbicidal ratio of 5% or lower (almost no effect)) | 4 (Herbicidal ratio of 70% or higher and lower than 90%)
3 | CON=C(CC1CC(O)=C(c2c(C)cc(C)cc2C)C1=O)c1ccc(F)cc1 (centres unmarked) [1-133] | 0 (Herbicidal ratio of 5% or lower (almost no effect)) | 0 (Herbicidal ratio of 5% or lower (almost no effect)) | 0 (Herbicidal ratio of 5% or lower (almost no effect)) | 0 (Herbicidal ratio of 5% or lower (almost no effect)) | 4 (Herbicidal ratio of 70% or higher and lower than 90%) | 4 (Herbicidal ratio of 70% or higher and lower than 90%) | 3 (Herbicidal ratio of 40% or higher and lower than 70%) | 0 (Herbicidal ratio of 5% or lower (almost no effect)) | 4 (Herbicidal ratio of 70% or higher and lower than 90%) | 0 (Herbicidal ratio of 5% or lower (almost no effect)) | 4 (Herbicidal ratio of 70% or higher and lower than 90%) | 0 (Herbicidal ratio of 5% or lower (almost no effect)) | 0 (Herbicidal ratio of 5% or lower (almost no effect)) | 4 (Herbicidal ratio of 70% or higher and lower than 90%) | 0 (Herbicidal ratio of 5% or lower (almost no effect)) | 0 (Herbicidal ratio of 5% or lower (almost no effect))
4 | CON=C(C)CC1CC(OC(=O)CSc2ccccc2)=C(c2c(C)cc(C)cc2C)C1=O (centres unmarked) [1-134] | 0 (Herbicidal ratio of 5% or lower (almost no effect)) | 5 (Herbicidal ratio of 90% or more (almost completely withered)) | 1 (Herbicidal ratio of 5% or higher and lower than 20%) | 5 (Herbicidal ratio of 90% or more (almost completely withered)) | 4 (Herbicidal ratio of 70% or higher and lower than 90%) | 5 (Herbicidal ratio of 90% or more (almost completely withered)) | 0 (Herbicidal ratio of 5% or lower (almost no effect)) | 1 (Herbicidal ratio of 5% or higher and lower than 20%) | 5 (Herbicidal ratio of 90% or more (almost completely withered)) | 5 (Herbicidal ratio of 90% or more (almost completely withered)) | 5 (Herbicidal ratio of 90% or more (almost completely withered)) | 5 (Herbicidal ratio of 90% or more (almost completely withered)) | 4 (Herbicidal ratio of 70% or higher and lower than 90%) | 5 (Herbicidal ratio of 90% or more (almost completely withered)) | 5 (Herbicidal ratio of 90% or more (almost completely withered)) | 0 (Herbicidal ratio of 5% or lower (almost no effect))
5 | CON=C(C)CC1CC(OC(=O)CN(C)C(=O)c2ccccc2)=C(c2c(C)cc(C)cc2C)C1=O (centres unmarked) [1-139] | 0 (Herbicidal ratio of 5% or lower (almost no effect)) | 4 (Herbicidal ratio of 70% or higher and lower than 90%) | 1 (Herbicidal ratio of 5% or higher and lower than 20%) | 5 (Herbicidal ratio of 90% or more (almost completely withered)) | 4 (Herbicidal ratio of 70% or higher and lower than 90%) | 5 (Herbicidal ratio of 90% or more (almost completely withered)) | 0 (Herbicidal ratio of 5% or lower (almost no effect)) | 0 (Herbicidal ratio of 5% or lower (almost no effect)) | 5 (Herbicidal ratio of 90% or more (almost completely withered)) | 5 (Herbicidal ratio of 90% or more (almost completely withered)) | 5 (Herbicidal ratio of 90% or more (almost completely withered)) | 5 (Herbicidal ratio of 90% or more (almost completely withered)) | 3 (Herbicidal ratio of 40% or higher and lower than 70%) | 5 (Herbicidal ratio of 90% or more (almost completely withered)) | 5 (Herbicidal ratio of 90% or more (almost completely withered)) | 1 (Herbicidal ratio of 5% or higher and lower than 20%)
